Data taken from patent publication US20250197382A1, “KIF18A INHIBITOR” (WIGEN BIOMEDICINE TECHNOLOGY (SHANGHAI) CO., LTD., priority 2022, published 2025).

Tests used:
[1] = target: Recombinant human KIF18A (1-467His-tagged) protein (Homo sapiens (Human), UniProt Q8NI77); experiment: KIF18A enzyme assay (microtubule-stimulated ATPase activity, ADP-Glo); assay type: biochemical; conditions: 30 nM KIF18A, ATP 75 μM, read-out: inhibitory activity against KIF18A IC50
Procedure, shortened: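 Baculovirus-expressed human KIF18A (1-467, His-tagged; 30 nM) preincubated 15 min at room temperature with compound (22-point 2-fold series) in pH 7.5 Tris buffer containing 30 μg/mL pig microtubules and 1 μM paclitaxel.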

HT-29 cells = experiment: In vitro anti-proliferative activity against HT-29 cells (intracellular ATP content, 72 h); assay type: cell-based; conditions: Homo sapiens, 72 h after dosing
Description: Biological Example 2. In Vitro Anti-Proliferative Activity of Compounds of the Present Invention Against HT-29 Cells
(§1) HT-29 cells were seeded on a 384-well plate at 3000 cells/well. After overnight adherence culture, DMSO or the compounds serially diluted in a 1:5 ratio from 5 μM were added. The viability was assessed 72 h after dosing by measuring the intracellular ATP content. The inhibition percentages of viable cells by the compounds were calculated by comparing with the DMSO group, and the IC so values were also calculated.

HCT116 cells = experiment: In vitro anti-proliferative activity against HCT116 cells (intracellular ATP content, 72 h); assay type: cell-based; conditions: Homo sapiens, HCT-116, 72 h after dosing
Description: Biological Example 3. In Vitro Anti-Proliferative Activity of Compounds of the Present Invention Against HCT116 Cells
as §1, with “HCT116” for “HT-29”, “IC50” for “IC so”

Sequence of Recombinant human KIF18A (1-467His-tagged) protein (Q8NI77 1-467): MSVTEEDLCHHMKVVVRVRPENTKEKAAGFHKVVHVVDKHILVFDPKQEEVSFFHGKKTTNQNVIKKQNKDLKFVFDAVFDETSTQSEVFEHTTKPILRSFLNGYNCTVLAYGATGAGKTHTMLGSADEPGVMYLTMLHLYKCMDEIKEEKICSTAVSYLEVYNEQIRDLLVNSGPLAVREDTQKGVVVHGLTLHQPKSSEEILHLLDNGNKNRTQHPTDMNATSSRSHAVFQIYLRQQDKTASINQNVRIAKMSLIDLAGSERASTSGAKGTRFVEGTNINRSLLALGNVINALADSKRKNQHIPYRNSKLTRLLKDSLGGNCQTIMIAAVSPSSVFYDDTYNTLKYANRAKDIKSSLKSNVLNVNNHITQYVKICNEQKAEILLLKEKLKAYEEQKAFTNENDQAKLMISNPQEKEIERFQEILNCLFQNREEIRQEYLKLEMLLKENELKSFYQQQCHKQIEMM
Sequence of Recombinant human KIF18A (1-467His-tagged) protein (P02550 whole entry partner): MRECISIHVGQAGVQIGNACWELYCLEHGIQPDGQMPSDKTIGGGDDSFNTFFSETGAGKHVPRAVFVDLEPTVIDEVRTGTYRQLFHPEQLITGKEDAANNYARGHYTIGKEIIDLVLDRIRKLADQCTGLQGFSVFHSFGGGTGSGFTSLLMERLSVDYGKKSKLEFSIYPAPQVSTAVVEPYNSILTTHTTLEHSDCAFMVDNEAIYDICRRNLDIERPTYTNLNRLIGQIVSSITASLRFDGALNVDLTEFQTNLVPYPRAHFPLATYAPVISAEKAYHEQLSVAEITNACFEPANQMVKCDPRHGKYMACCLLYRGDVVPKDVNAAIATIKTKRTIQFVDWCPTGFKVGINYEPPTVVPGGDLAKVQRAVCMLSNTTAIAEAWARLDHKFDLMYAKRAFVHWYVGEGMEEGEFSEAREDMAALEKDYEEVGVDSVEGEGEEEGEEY
Sequence of Recombinant human KIF18A (1-467His-tagged) protein (P02554 whole entry partner): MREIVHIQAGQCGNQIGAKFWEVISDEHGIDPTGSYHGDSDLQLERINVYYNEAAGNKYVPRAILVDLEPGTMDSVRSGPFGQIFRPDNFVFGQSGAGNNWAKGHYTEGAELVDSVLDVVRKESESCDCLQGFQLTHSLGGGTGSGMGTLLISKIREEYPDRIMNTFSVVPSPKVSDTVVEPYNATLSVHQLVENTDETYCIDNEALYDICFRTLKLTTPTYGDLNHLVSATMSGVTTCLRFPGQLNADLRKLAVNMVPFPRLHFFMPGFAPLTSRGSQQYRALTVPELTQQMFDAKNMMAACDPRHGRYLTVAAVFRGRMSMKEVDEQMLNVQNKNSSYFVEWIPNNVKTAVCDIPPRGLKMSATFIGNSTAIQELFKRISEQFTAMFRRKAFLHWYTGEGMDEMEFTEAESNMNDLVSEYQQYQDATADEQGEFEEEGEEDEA

| IC50 [1] | IC50 (HT-29 cells) | IC50 (HCT116 cells) | Compound |
| --- | --- | --- | --- |
| ≤ 100 nM | 81 nM | > 10000 nM | O=C(Nc1ccc(S(=O)(=O)NCCO)cc1N1CCC2(CC1)CC2)c1cc2c(c(N3CCC(F)(F)CC3)n1)OCC2 [Compound 113] |
| ≤ 100 nM | 51 nM | > 10000 nM | O=C(Nc1cc2c(c(N3CC(F)(F)C3)n1)OCC2)c1ccc(NS(=O)(=O)CCO)cc1N1CCC2(CC1)CC2 [Compound 68] |
| ≤ 100 nM | 63 nM | > 10000 nM | O=C(Nc1cc2c(c(N3CC(F)(F)C3)c1)OCC2)c1ccc(NS(=O)(=O)CCO)cc1N1CCC2(CC1)CC2 [Compound 4] |
| ≤ 100 nM | 9 nM | > 10000 nM | O=C(Nc1cc2c(c(N3CCC(F)(F)CC3)c1)OCC2)c1ccc(NS(=O)(=O)CCO)cc1N1CCC2(CC1)CC2 [Compound 1] |
| ≤ 100 nM | 71 nM | > 10000 nM | O=C(Nc1cc2c(c(OCCC(F)(F)F)n1)OCC2)c1ccc(NS(=O)(=O)CCO)cc1N1CCC2(CC1)CC2 [Compound 69] |
| – | 88 nM | > 10000 nM | O=C(Nc1ccc(NS(=O)(=O)CCO)cc1N1CCC2(CC1)CC2)c1cc2c(c(OCCC(F)(F)F)c1)OCC2 [Compound 5] |
| ≤ 100 nM | 71 nM | > 10000 nM | O=C(Nc1cc(N2CCC(F)(F)CC2)c2ocnc2c1)c1ccc(NS(=O)(=O)CCO)cc1N1CCC2(CC1)CC2 [Compound 513] |
| ≤ 100 nM | 61 nM | > 10000 nM | O=C(Nc1ccc(S(=O)(=O)NCCO)cc1N1CCC2(CC1)CC2)c1cc2c(c(N3CCC(F)(F)CC3)c1)OCC2 [Compound 49] |
| ≤ 100 nM | 8 nM | > 10000 nM | O=C(Nc1cc2c(c(N3CCC(F)(F)CC3)n1)OCC2)c1ccc(NS(=O)(=O)CCO)cc1N1CCC2(CC1)CC2 [Compound 65] |
| ≤ 100 nM | 36 nM | > 10000 nM | O=C(Nc1cc(N2CCC(F)(F)CC2)c2ncccc2c1)c1ccc(NS(=O)(=O)CCO)cc1N1CCC2(CC1)CC2 [Compound 530] |
| ≤ 100 nM | 85 nM | > 10000 nM | C[C@@H]1CN(c2nc(NC(=O)c3ccc(NS(=O)(=O)CCO)cc3N3CCC4(CC3)CC4)cc3c2OCC3)CCO1 [Compound 66] |
| ≤ 100 nM | 73 nM | > 10000 nM | O=C(Nc1cc2c(c(OC3CCC3)c1)OCC2)c1ccc(NS(=O)(=O)CCO)cc1N1CCC2(CC1)CC2 [Compound 7] |
| ≤ 100 nM | 69 nM | 8190 nM | O=C(Nc1cc2cc[nH]c2c(N2CCC(F)(F)CC2)n1)c1ccc(NS(=O)(=O)CCO)cc1N1CCC2(CC1)CC2 [Compound 522] |
| ≤ 100 nM | – | > 10000 nM | C[C@@H]1CN(c2cc(NC(=O)c3ccc(NS(=O)(=O)CCO)cc3N3CCC4(CC3)CC4)cc3c2OCC3)CCO1 [Compound 2] |
| ≤ 100 nM | 43 nM | > 10000 nM | O=C(Nc1cc2c(c(N3CCC(F)(F)CC3)c1)OCCC2)c1ccc(NS(=O)(=O)CCO)cc1N1CCC2(CC1)CC2 [Compound 539] |
| ≤ 100 nM | 40 nM | > 10000 nM | O=C(Nc1cc(N2CCC(F)(F)CC2)c2occc2c1)c1ccc(NS(=O)(=O)CCO)cc1N1CCC2(CC1)CC2 [Compound 129] |
| ≤ 100 nM | 51 nM | > 10000 nM | O=C(Nc1cc2c(c(N3CCC(F)(F)CC3)n1)OCC2)c1ccc(S(=O)(=O)NCCO)cc1N1CCC2(CC1)CC2 [Compound 81] |
| – | 38 nM | > 10000 nM | O=C(Nc1cc2cccnc2c(N2CCC(F)(F)CC2)n1)c1ccc(NS(=O)(=O)CCO)cc1N1CCC2(CC1)CC2 [Compound 583] |
| – | 70 nM | > 10000 nM | O=C(Nc1ccc(NS(=O)(=O)CCO)cc1N1CCC2(CC1)CC2)c1cc2cccnc2c(N2CCC(F)(F)CC2)n1 [Compound 584] |
| ≤ 100 nM | 57 nM | > 10000 nM | O=C(Nc1ccc(NS(=O)(=O)CCO)cc1N1CCC2(CC1)CC2)c1cc2c(c(N3CCC(F)(F)CC3)n1)OCC2 [Compound 97] |
| ≤ 100 nM | – | > 10000 nM | C[C@H]1CN(c2cc(NC(=O)c3ccc(NS(=O)(=O)CCO)cc3N3CCC4(CC3)CC4)cc3c2OCC3)CCO1 [Compound 3] |
| – | 89 nM | > 10000 nM | Cc1cc(NC(=O)c2ccc(NS(=O)(=O)CCO)cc2N2CCC3(CC2)CC3)nc(N2CCC(F)(F)CC2)n1 [AMG650, reference compound] |
| ≤ 100 nM | 52 nM | > 10000 nM | O=C(Nc1ccc(NS(=O)(=O)CCO)cc1N1CCC2(CC1)CC2)c1cc2c(c(N3CCC(F)(F)CC3)c1)OCC2 [Compound 33] |
| ≤ 100 nM | 56 nM | > 10000 nM | O=C(Nc1cc2c(c(OC3CCC3)n1)OCC2)c1ccc(NS(=O)(=O)CCO)cc1N1CCC2(CC1)CC2 [Compound 71] |
